Key:
[1] = target: T1, porcine pancreas α-amylase (Sus scrofa, UniProt P00690); assay: Assay for α-amylase inhibition (potato starch substrate, iodine, absorbance at 650 nm); format: biochemical; details: for α-amylase inhibitory effect (in words): compared with acarbose; for IC50: porcine pancreas α-amylase, tested three times, mean ± SD
T1 construct: purchased Sigma-Aldrich A3176
T1 sequence (P00690 16-511): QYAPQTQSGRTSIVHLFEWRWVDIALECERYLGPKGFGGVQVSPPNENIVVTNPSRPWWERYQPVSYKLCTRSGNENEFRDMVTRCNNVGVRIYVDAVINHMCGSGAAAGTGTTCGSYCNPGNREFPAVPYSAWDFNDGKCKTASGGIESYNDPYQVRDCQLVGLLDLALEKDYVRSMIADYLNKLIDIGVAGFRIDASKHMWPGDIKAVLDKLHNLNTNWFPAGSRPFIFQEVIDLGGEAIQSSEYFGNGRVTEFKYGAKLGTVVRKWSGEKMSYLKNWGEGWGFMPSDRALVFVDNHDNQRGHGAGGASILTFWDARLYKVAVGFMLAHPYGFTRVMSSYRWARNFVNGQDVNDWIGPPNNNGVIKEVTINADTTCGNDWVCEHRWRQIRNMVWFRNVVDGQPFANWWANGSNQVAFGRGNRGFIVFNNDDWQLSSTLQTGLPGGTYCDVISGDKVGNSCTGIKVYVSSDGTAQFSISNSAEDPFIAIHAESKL
Description: The substrate was prepared by boiling 100 mg potato starch in 5 mL phosphate buffer (pH 7.0) for 5 min and then cooling to room temperature. The sample ([…] dissolved in DMSO) and substrate ([…]) were mixed in […] of 0.1 M phosphate buffer (pH 7.0). After 5 min preincubation, 5 mg/mL α-amylase solution (20 mL) was added, and the solution was incubated at 37°C for 15 min. The reaction was stopped by adding […] of 1 M·HCl, and then, […] of iodine solution was added. The absorbances were measured at 650 nm by a microplate reader. […] The inhibitory activity was calculated by the following equation: α-amylase inhibitory activity (%) = (1–A/A0) × 100, where A is the absorbance of the sample and A0 is the absorbance of the blank, respectively. The IC50 value was calculated by GraphPad Prism.
(§1) Inhibition of α-glucosidase is one very effective way of delaying glucose absorption and lowering the postprandial blood glucose level, which can potentially suppress the progression of DM.

yeast α-glucosidase = assay: Assay for α-glucosidase inhibition (p-nitrophenyl-α-D-glucopyranoside substrate, absorbance at 405 nm); format: biochemical; details: for α-glucosidase inhibitory effect (in words): compared with acarbose; for α-Glucosidase IC50 ± SD: tested three times, mean ± SD
Description: The yeast α-glucosidase (G0660, Sigma-Aldrich) inhibition assay was performed using the substrate p-nitrophenyl-α-D-glucopyranoside according to the previously described method. […] After 5 min preincubation, 5 mM p-nitrophenyl-α-D-glucopyranoside solution ([…]) was added, and the solution was incubated at 37°C for 30 min. […]. Each concentration of samples was carried out in triplicate. The absorbance of released 4-nitrophenol was measured at 405 nm by using a microplate reader (xMark, Bio-Rad, USA). […] The inhibitory activity was calculated by the following equation: α-glucosidase inhibitory activity (%) = (1–A/A0) × 100, where A is the absorbance of the sample and A0 is the absorbance of the blank, respectively. The IC50 value was calculated by GraphPad Prism.
as §1

SMILES	α-amylase inhibitory effect (in words) [1]	IC50 [1]	α-glucosidase inhibitory effect (in words) (yeast α-glucosidase)	α-Glucosidase IC50 ± SD (yeast α-glucosidase; yeast α-glucosidase)	α-Glucosidase inhibition (symbol in IC50 column) (yeast α-glucosidase; yeast α-glucosidase, dash = no inhibition (less than 10% inhibition))
C[C@@H]1CC[C@]2(C(=O)O)CC[C@]3(C)C(=CC[C@@H]4[C@@]5(C)CC[C@H](O)C(C)(C)[C@@H]5CC[C@]43C)[C@@H]2[C@]1(C)O [Compound 9, pomolic acid]	moderate	837 µM	moderate	821.4 ± 55.2 µg/mL	
CC(O)C=CC12OC1(C)C(O)C(OS(=O)(=O)O)CC2(C)C [Compound 1, (3S,4R,5R,6S,9S,7E)-megastigman-5,6-epoxy-7-ene,4,9-diol,3-sulfonic acid]	moderate	1350 µM	moderate	915.6 ± 36.5 µg/mL	
C[C@@H]1CC[C@]2(C(=O)O)CC[C@]3(C)C(=CC[C@@H]4[C@@]5(C)CCC(=O)C(C)(C)[C@@H]5CC[C@]43C)[C@@H]2[C@]1(C)O [Compound 8, pomonic acid]	moderate	894 µM	moderate		— ((‒): no inhibition (less than 10% inhibition))
COc1cc(-c2cc(=O)c3c(O)c(OC)c(O)cc3o2)ccc1O [Compound 7, jaceosidin]		342 µM		785.9 ± 12.7 µg/mL	

From article PMC5971303, “α-Amylase and α-Glucosidase Inhibitory Activities of Chemical Constituents from Wedelia chinensis (Osbeck.) Merr. Leaves” (Journal of Analytical Methods in Chemistry, 2018)
